Data taken from US20250075176A1, “COMPOSITIONS COMPRISING HISTONE […] INHIBITORS OR REVERSE TRANSCRIPTASE INHIBITORS AND USE THEREOF” (FOREVE LABS LTD., priority 2022, published 2025).

How the values were obtained:
young mouse oocytes = experiment: In vitro maturation of young mouse oocytes treated with epigenetic drugs; format: cell-based; settings: 2-month-old oocytes, Chaetocin 0.5 μM 18 h, FIG. 7A
Source text: (§1) Mouse oocyte in vitro maturation: After Euthanasia, ovaries were collected and dissected in L-15 medium (011151A) and supplemented with 200 um IBMX (17018) to prevent meiotic progression. Prophase I arrested oocytes were identified by visualization of the typical germinal vesicle and collected under a binocular using a Stripper (MD-MXL3-STR-CGR). After collection, oocytes were transferred into a-MEM medium (22561021) supplemented with IBMX covered with Mineral oil (M8410-11) to prevent evaporation, for recovery time of 25 min at 37° in a 5% CO2 incubator, and then washed in IBMX free a-MEM medium to initiate meiosis. The oocytes were incubated in a-MEM under oil in the incubator for 6 hours for prophase I or incubated for 19 hours for metaphase II. To assess maturation rates, oocytes were incubated for 19 hours after release and then fixed and stained by Hoechst to examine the entry into the second meiotic division. See below amendments for drug treatments.
(§2) Drug treatments: Ovaries were collected and dissected in L-15 medium supplemented with 200 um IBMX to prevent meiotic progression as described above. Prophase I arrested oocytes were collected using a Stripper as described above. […]

PCAF = PCAF (Homo sapiens, UniProt Q92831); settings: cited from earlier work
human oocytes = experiment: Human oocyte IVM with HAT or RT inhibitor supplementation; format: cell-based; settings: oocytes from young fertility preservation patients, Sage medium with LH and FSH, FIG. 11
Method: Human IVM protocol: Germinal vesicle (GV) oocytes were subjected to IVM in a Sage medium (A1-rad Medical) supplemented with 0.075 IU/mL luteinizing hormone (LH) and 0.075 IU/mL follicle stimulating hormone (FSH) overnight. HAT and/or RT inhibitors were added to the overnight culture in some experiments. All naked oocytes that were found were transferred for up to 48 hours of incubation in oocyte maturation medium (Sage In-Vitro Fertilization) supplemented with 0.075 IU/mL human menopausal gonadotropin (hMG) (Menopur, Ferring Pharmaceuticals). HAT and/or RT inhibitors were added to the 48-hour culture in some experiments. After 24 hours of incubation, the media was searched for mature oocytes that were immediately frozen. The media were then incubated for another 24 hours and searched again for other mature oocytes.
To also look at non-arrested human oocytes, we investigated the behavior of another cohort of human oocytes extracted from patients undergoing gonadotoxic treatment and therefore undergoing fertility preservation. In these cases, when hormonal induction and oocyte extraction are not possible due to the young age of the patient or social reasons, ovary surgical extraction is performed. After extraction, ovaries are dissected in medium in the IVF lab, and ovary tissue is cryopreserved. After remission, ovary tissue can be transplanted, and IVF performed. […]

old mouse oocytes = experiment: In vitro maturation of old mouse oocytes in medium supplemented with drug; format: cell-based; settings: for ability to induce maturation (first polar body extrusion and proper chromosome division): IVM media (a-MEM) with inhibitor, 24 hours, curcumin positive control, FIG. 9C-9D
Source text: as §1
Drug treatments: Ovaries were collected and dissected in L-15 medium supplemented with 200 um IBMX to prevent meiotic progression as described above. Prophase I arrested oocytes were collected using a Stripper as described above. After collection, oocytes were transferred to a-MEM medium supplemented with IBMX +the desired drug covered with Mineral oil to prevent evaporation, for 4 hours at 37° in a 5% CO2 incubator (Since Chaetocin and IBMX have a cross reactivity with each other, the pause was not performed in Chaetocin experiments). After the pause, oocytes were washed in IBMX-free a-MEM that contains the drug to initiate meiosis. 19 hours after oocytes were released from IBMX, oocytes were fixed in PFA, permeabilized, and sealed as described above. Chaetocin is a hazarzous substance. For biosafety reasons, Chaetocin supplemented plates and matched controls were placed in a sealed chamber during incubation time.
It was next tested if similar results could be achieved without genetic manipulation. Old oocytes were treated with two different naturally occurring histone acetyltransferase (HAT) inhibitors: curcumin and garcinol. As a negative control, oocytes were given vehicle only. […] Next, a broader panel of naturally occurring HAT inhibitors were tested along with another reverse transcriptase (RT) inhibitor (FIG. 9C). As before, old oocytes were incubated in IVM media (a-MEM) supplemented with the inhibitors for 24 hours and maturation was measured. Oocytes with both first polar body extrusion and proper division of chromosomes (as evaluated by Hoechst staining) were considered as mature. Curcumin was used as a positive control.

[1] = Acidity of the molecule and effect on medium pH; format: physicochemical
Source text: The pH of the medium used was around 7.3 with buffering capacity between 6.9 and 7.6. […] This acidity interfered with maturation and indeed in the case of the two strongly acidic molecules inhibited it. Medium with a greater buffering capacity or a different concentration of these acidic molecules will allow for HAT inhibition induced maturation improvement.

older oocytes = settings: aged animals, previously shown; cited from earlier work
H3K9me2 [2] = experiment: In situ staining intensity for H3K9me2 (heterochromatin) in old oocytes; format: cell-based, mouse; settings: aged oocytes cultured with SRT-1720, FIG. 8G
Method: Mouse oocytes collection for in situ immunofluorescence: After Euthanasia, ovaries were collected and dissected in M2 medium (M7167). Oocytes were collected from pool of 3 animals at least (numbers of each experiment are noted in legend). Prophase I arrested oocytes were collected under a binocular using a Stripper and washed in hyaluronidase (H4272-30 MG) to remove granulosa cells and acidic Tyrode's Solution (T1788) to remove the Zona Pellucida. The oocytes were fixed using PFA 4% (15710) for 20 min, and then quenched in PBS supplemented with 10 mM glycine and 1% BSA.
(§3) In situ immunofluorescence: Permeabilization was performed using 0.1% Triton X-100. Cells were cultured in PBS contains 5% BSA for blocking, and first and secondary antibodies were diluted in 0.1 Tween 20 (P9416)/PBS containing 5% BSA. The immune-stained cells were mounted in Vectashield (H-1000) mounting medium containing 80 nM of Hoechst (33342) and sealed on a slide using an Imaging spacer (GBL654002).
Imaging and quantification: Oocytes were imaged using the Ti-Eclipse Nikon system, with an Andor Zyla nsc05537 camera. […] Every cell was imaged at multiple planes. In order to analyze the images in a quantitatively, a projection of maximum intensity was created. To measure staining intensity, every assessed region was normalized to an equal-size region in the background (outside the area of interest). […]

L1-encoded ORF1p = experiment: In situ immunofluorescence for L1-ORF1p in treated young oocytes; format: cell-based, mouse; settings: TSA 100 nm
Method: as §3
(§4) Imaging and quantification: Oocytes were imaged using the Ti-Eclipse Nikon system, with an Andor Zyla nsc05537 camera. […] Every cell was imaged at multiple planes. In order to analyze the images in a quantitatively, a projection of maximum intensity was created. To measure staining intensity, every assessed region was normalized to an equal-size region in the background (outside the area of interest). The intensity score was generated by dividing the intensity in the area of interest by that of the background.
as §2

H3K4me3 = experiment: In situ staining for H3K4me3 in treated young oocytes; format: cell-based, mouse; settings: TSA 100 nm
Method: as §3, §4, §2

H3K27Ac = experiment: In situ staining for H3K27Ac in treated young oocytes; format: cell-based, mouse; settings: TSA 100 nm, 4 h arrest then 18 h until MII
Method: as §3, §4, §2

H3K9me2 [3] = experiment: H3K9me2 staining in treated young oocytes; format: cell-based, mouse; settings: TSA 100 nm, 4 h arrest then 18 h until MII
Method: Chromosome spread and immunofluorescence: Prophase I arrested oocytes were collected from ovaries as above and incubated for 6 hours to reach the first prophase or for 17 hours to reach second meiosis prophase as described above. Matured oocytes were washed in M2 medium and then in acidic Tyrode's Solution to remove the Zona Pellucida. 15 min before the desired time for chromosome spread, oocytes were kept in hypotonic solution, composed of FBS (F7524) diluted in DDW in 1:1 ratio. Oocytes were then spread in spreading solution (1% PFA buffered to 9.2 pH, supplemented with 0.15% Triton X-100and 0.03% […]) on Superfrost plus slides (32090003). To assess ploidy, prophase II spreads were stained with Hoechst to visualize chromatin and CREST to visualize the centromeres, and the imaged chromosome were manually counted.
In situ immunofluorescence: Permeabilization was performed using 0.1% Triton X-100. […]
Imaging and quantification: Oocytes were imaged using the Ti-Eclipse Nikon system, with an Andor Zyla nsc05537 camera. […] In order to analyze the images in a quantitatively, a projection of maximum intensity was created. To measure staining intensity, every assessed region was normalized to an equal-size region in the background (outside the area of interest). […]

Rad51 = Rad51 nuclear localization (DNA damage response) in treated young oocytes; format: cell-based, mouse; settings: TSA 100 nm
Method: as §3, §4, §2

Chain of PCAF (Q92831 whole entry, species assumed): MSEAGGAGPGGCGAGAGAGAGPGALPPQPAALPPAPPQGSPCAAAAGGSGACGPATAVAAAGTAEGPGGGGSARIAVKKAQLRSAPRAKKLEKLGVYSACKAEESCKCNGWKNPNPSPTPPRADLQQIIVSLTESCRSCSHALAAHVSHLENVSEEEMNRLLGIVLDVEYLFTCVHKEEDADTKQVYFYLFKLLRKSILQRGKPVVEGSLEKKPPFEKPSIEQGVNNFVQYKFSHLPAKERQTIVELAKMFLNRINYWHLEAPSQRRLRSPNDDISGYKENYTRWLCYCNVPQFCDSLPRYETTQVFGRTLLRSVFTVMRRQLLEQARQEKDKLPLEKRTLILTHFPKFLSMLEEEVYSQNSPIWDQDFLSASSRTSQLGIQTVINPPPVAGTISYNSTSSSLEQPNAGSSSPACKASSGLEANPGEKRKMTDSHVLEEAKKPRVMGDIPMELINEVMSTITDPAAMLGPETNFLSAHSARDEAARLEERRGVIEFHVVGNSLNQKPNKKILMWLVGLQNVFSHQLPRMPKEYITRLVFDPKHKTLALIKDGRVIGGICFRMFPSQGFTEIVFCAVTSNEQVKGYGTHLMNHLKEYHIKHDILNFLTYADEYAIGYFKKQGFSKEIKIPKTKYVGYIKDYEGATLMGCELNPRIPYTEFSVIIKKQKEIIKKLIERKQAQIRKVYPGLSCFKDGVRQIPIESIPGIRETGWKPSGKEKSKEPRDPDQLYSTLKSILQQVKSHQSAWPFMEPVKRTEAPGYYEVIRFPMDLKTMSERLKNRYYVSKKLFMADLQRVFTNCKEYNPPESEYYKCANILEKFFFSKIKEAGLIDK

## CN1C(=O)[C@@]23C[C@]4([C@]56C[C@@]78SS[C@@](CO)(C(=O)N7[C@H]5Nc5ccccc56)N(C)C8=O)c5ccccc5N[C@@H]4N2C(=O)[C@]1(CO)SS3 [Chaetocin]
Young mouse oocytes
  reduction in oocytes that properly mature: 18%

## COc1cc(/C=C/C(=O)CC(=O)/C=C/c2ccc(O)c(OC)c2)ccc1O [Curcumin]
PCAF
  PCAF inhibition: do not
Human oocytes
  maturation ability of human oocytes: did not impair their maturation ability and even increased it
Old mouse oocytes; old oocytes, curcumin 10 um, FIG. 9A
  maturation rate at the highest dose: over 80%
Old mouse oocytes; old oocytes, vehicle-only negative control, FIG. 9A-9B
  maturation rate versus vehicle: dose dependent increase

## O=C(O[C@@H]1Cc2c(O)cc(O)cc2O[C@@H]1c1cc(O)c(O)c(O)c1)c1cc(O)c(O)c(O)c1 [EGCG, Epigallocatechin gallate]
[1]
  acidity: more weakly acidic
Old mouse oocytes; old oocytes
  ability to induce maturation (first polar body extrusion and proper chromosome division): did not produce increased maturation

## NC(=O)c1ccc[n+]([C@@H]2O[C@H](COP(=O)([O-])OP(=O)(O)OC[C@H]3O[C@@H](n4cnc5c(N)ncnc54)[C@H](O)[C@@H]3O)[C@@H](O)[C@H]2O)c1 [NAD+, nicotinamide adenine dinucleotide]
Older oocytes
  oocyte quality: rejuvenated oocyte quality

## CC1=CC(=O)c2c(O)cccc2C1=O [Plumbagin]
PCAF
  PCAF inhibition: do not
Old mouse oocytes; old oocytes
  ability to induce maturation (first polar body extrusion and proper chromosome division): comparable to curcumin

## O=C(Nc1ccccc1-c1cn2c(CN3CCNCC3)csc2n1)c1cnc2ccccc2n1 [SRT-1720]
Old mouse oocytes; aged oocytes cultured with SRT-1720, FIG. 8H
  maturation ability of treated cells: recovered maturation ability
H3K9me2 [2]
  heterochromatin (H3K9me2 staining intensity): heterochromatin elevation

## CC(/C=C/C(=O)NO)=C\[C@@H](C)C(=O)c1ccc(N(C)C)cc1 [TSA, Trichostatin A]
L1-encoded ORF1p
  L1-ORF1p localization: accumulates in nuclei
  L1-encoded ORF1p overall signal level: do not show a L1-encoded ORF1p elevation
H3K4me3
  staining for H3K4me3: unchanged
H3K27Ac
  H3K27Ac in situ staining: increase
H3K9me2 [3]
  H3K9me2 in situ staining: decrease
Rad51
  DNA damage response (Rad51 nuclear localization): elevated

## CCCCCCCCCCCCCCCc1cccc(O)c1C(=O)O [anacardic acid]
PCAF
  PCAF inhibition: strongly inhibit
[1]
  acidity: highly acidic
Old mouse oocytes; old oocytes
  ability to induce maturation (first polar body extrusion and proper chromosome division): did not produce increased maturation

## CC(C)=CCC[C@]1(C)C=Cc2c(O)c3c(c(CC=C(C)C)c2O1)O[C@]12C(=C[C@@H]4C[C@H]1C(C)(C)O[C@@]2(C/C=C(/C)C(=O)O)C4=O)C3=O [gambogic acid]
PCAF
  PCAF inhibition: strongly inhibit
[1]
  acidity: highly acidic
Old mouse oocytes; old oocytes
  ability to induce maturation (first polar body extrusion and proper chromosome division): did not produce increased maturation
